Patent US20070086953A1, “Medicinal Aerosol Formulation Products With Improved Chemical Stability” (priority 2004, published 2007)

Tests used:
[1] = Stability study of TA 2005 HFA solution formulation in MDI cans, 40° C. and 75% relative humidity; format: physicochemical; settings: three months, mean of two cans
Experimental: A formulation for delivering a nominal dose of 1 μg per actuation of TA 2005 was prepared with the composition as follows:
The formulation (120 actuations/canister, overage of 30 actuations) was filled in aluminium canisters having the internal surface coated with Teflon (two stage pressure filling) and fitted with a metering valve having a 63 μl metering chamber provided with a butyl rubber gasket as described in WO 03/078538 (Bespak) cited above. In particular, the gaskets were made of a bromobutyl rubber made of approximately 97% isobutylene and approximately 3% isoprene and having been polymerised by using an aluminium chloride catalyst and by treating the thus obtained isoprene-isobutylene rubber with bromine.
The same formulation was filled in the same kind of cans fitted with valves provided with EPDM rubber gaskets.
A stability study was carried out storing the formulation in upright and inverted cans at 40° C. and 75% relative humidity.
The stability test in Examples 1 and 2 was carried out both in upright and inverted cans. In inverted position, the formulation is in direct contact with the valve materials for all the duration of the test in order to detect possible chemical interactions with the valve materials that may negatively affect the stability of the active ingredient in the formulation. In upright cans the interactions between the valve materials and the formulation are very limited and so also the possible negative effects on the stability of the active ingredient in the formulation may be unnoticed.

[2] = 4 μg/63 μl, stored upright at 5° C., teflon-coated aluminium canisters, EPDM gaskets, after nine months; cited from earlier work

With `COc1ccc(C[C@@H](C)NC[C@H](O)c2ccc(O)c3[nH]c(=O)ccc23)cc1.Cl` [TA 2005, 8-hydroxy-5-[(1R)-1-hydroxy-2-[[(1R)-2-(4-methoxyphenyl)-1-methylethyl]amino]ethyl]-2(1H)-quinolinone hydrochloride] the “percent amount of TA 2005” value ([1]; inverted cans, EPDM rubber gaskets) was 77%, the “percent amount of TA 2005” value ([1]; inverted cans, bromobutyl rubber gaskets) was 97% and the “percent amount of TA 2005” value ([1]; upright cans, EPDM rubber gaskets) was 98%. For the same compound, the “percent amount of TA 2005” value ([1]; upright cans, bromobutyl rubber gaskets) was 98% and the “TA 2005 assay” value [2] was “higher than 95%”.
